Test results as given in patent US20240270740A1, “INHIBITORS OF CYCLIC GMP-AMP SYNTHASE AND USES THEREOF” (Ventus Therapeutics U.S., Inc., priority 2022, published 2024).

Biological target: hcGAS (Homo sapiens, UniProt Q8N884)
Assay: hcGAS LCMS assay (direct measurement of cGAMP production)
Assay type: biochemical
Conditions: 0.5 nM hcGAS, 100 μM ATP, 100 μM GTP, 25 nM dsDNA, 4 h incubation
Protocol: cGAS catalyzes the cyclization of ATP and GTP to produce cGAMP, which is the activating ligand of STING. Human cGAS (hcGAS) inhibition can thus be quantified by measuring how much cGAMP is formed either indirectly, by monitoring ATP-depletion as in the hcGAS Kinase-Glo assay (as described below), or directly, such as using the hcGAS LCMS assay (as described below).
Compounds were tested for their h-cGAS inhibition activity using direct measurement of cGAMP production by LC/MS. Briefly, compounds were incubated with enzyme and substrates for 4 hours (see Table C), before the reaction was stopped with 3 volumes of 70/30 Acetonitrile/H2O mix containing 0.15 mM cGAMP-^13C10^5N5 as internal standard and mixed for […]. After centrifugation (3700 rpm, 10 min, 10° Celsius), […] of each reaction was collected and mixed to equal volume of Acetonitrile. Samples were then analyzed on Qexective (Column: XBridge BEH Amide Column, 130 Å, 3.5 μm, 3 mm×50 mm, Mobile phase A: 10 mM Ammonium acetate in 95/5% H2O/Acetonitrile (0.5% DMSO), Mobile phase B: Acetonitrile (0.5% DMSO).
The results of the assay, expressed as IC50 values, are reported in Table D with the following designations: A represents an IC50 value<0.005 μM; B represents an IC50 value≥0.005 μM and <0.02 μM, C represents an IC50 value≥0.02 μM and <0.06 μM; D represents an IC50 value≥0.06 and <0.2 μM; E represents an IC50 value≥0.2.

Sequence of hcGAS (Q8N884 whole entry): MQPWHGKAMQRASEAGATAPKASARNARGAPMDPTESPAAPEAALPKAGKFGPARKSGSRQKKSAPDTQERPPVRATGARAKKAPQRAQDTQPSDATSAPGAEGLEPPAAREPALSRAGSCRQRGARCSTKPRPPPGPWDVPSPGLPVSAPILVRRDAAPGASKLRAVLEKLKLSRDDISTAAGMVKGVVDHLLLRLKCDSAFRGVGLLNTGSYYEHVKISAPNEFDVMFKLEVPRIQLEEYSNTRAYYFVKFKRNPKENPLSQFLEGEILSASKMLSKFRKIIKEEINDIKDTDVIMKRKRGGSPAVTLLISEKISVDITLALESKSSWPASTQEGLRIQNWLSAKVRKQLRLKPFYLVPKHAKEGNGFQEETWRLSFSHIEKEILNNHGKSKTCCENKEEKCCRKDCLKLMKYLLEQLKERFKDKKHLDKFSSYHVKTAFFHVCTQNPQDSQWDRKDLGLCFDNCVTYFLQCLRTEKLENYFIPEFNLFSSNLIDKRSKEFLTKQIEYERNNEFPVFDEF

SMILES | IC50
COc1c(N(CCO)CCO)cc(C(=O)Nc2nnc(-n3nccc3C)s2)oc1=O (single isomer, unassigned) [Compound 158, 4-(bis(2-hydroxyethyl)amino)-3-methoxy-N-(5-(5-methyl-1H-pyrazol-1-yl)-1,3,4-thiadiazol-2-yl)-2-oxo-2H-pyran-6-carboxamide] | 60 to 200 nM
COc1c(NCCOCC(F)F)cc(C(=O)Nc2nnc(-n3nccc3C)s2)oc1=O [Compound 17, 4-((2-(2,2-difluoroethoxy)ethyl)amino)-3-methoxy-N-(5-(5-methyl-1H-pyrazol-1-yl)-1,3,4-thiadiazol-2-yl)-2-oxo-2H-pyran-6-carboxamide] | 20 to 60 nM
COc1c(NC23CCC(CC2)CC3)cc(C(=O)Nc2nnc(-n3nccc3C)s2)oc1=O [Compound 18, 4-(bicyclo[2.2.2]octan-1-ylamino)-3-methoxy-N-(5-(5-methyl-1H-pyrazol-1-yl)-1,3,4-thiadiazol-2-yl)-2-oxo-2H-pyran-6-carboxamide] | < 5 nM
COc1c(NC[C@H]2CCCO2)cc(C(=O)Nc2nnc(-n3nccc3C)s2)oc1=O [Compound 20, (R)-3-methoxy-N-(5-(5-methyl-1H-pyrazol-1-yl)-1,3,4-thiadiazol-2-yl)-2-oxo-4-(((tetrahydrofuran-2-yl)methyl)amino)-2H-pyran-6-carboxamide] | 20 to 60 nM
COC[C@@H](Nc1cc(C(=O)Nc2nnc(-n3nccc3C)s2)oc(=O)c1OC)c1ccccc1 [Compound 49, (S)-3-methoxy-4-((2-methoxy-1-phenylethyl)amino)-N-(5-(5-methyl-1H-pyrazol-1-yl)-1,3,4-thiadiazol-2-yl)-2-oxo-2H-pyran-6-carboxamide] | 20 to 60 nM
COc1c(NC23COC(C2)C3)cc(C(=O)Nc2nnc(-n3nccc3C)s2)oc1=O [Compound 51, 4-((2-oxabicyclo[2.1.1]hexan-4-yl)amino)-3-methoxy-N-(5-(5-methyl-1H-pyrazol-1-yl)-1,3,4-thiadiazol-2-yl)-2-oxo-2H-pyran-6-carboxamide] | 5 to 20 nM
COC[C@@H](Nc1cc(C(=O)Nc2nnc(-n3nccc3C)s2)oc(=O)c1OC)C(C)C [Compound 77, (S)-3-methoxy-4-((1-methoxy-3-methylbutan-2-yl)amino)-N-(5-(5-methyl-1H-pyrazol-1-yl)-1,3,4-thiadiazol-2-yl)-2-oxo-2H-pyran-6-carboxamide] | 5 to 20 nM
COC[C@H](Nc1cc(C(=O)Nc2nnc(-n3nccc3C)s2)oc(=O)c1OC)C(C)C [Compound 78, (R)-3-methoxy-4-((1-methoxy-3-methylbutan-2-yl)amino)-N-(5-(5-methyl-1H-pyrazol-1-yl)-1,3,4-thiadiazol-2-yl)-2-oxo-2H-pyran-6-carboxamide] | < 5 nM
COc1c(N[C@H]2CCC[C@H]2O)cc(C(=O)Nc2nnc(-c3c(Cl)ccn3C)s2)oc1=O [Compound 83, N-(5-(3-chloro-1-methyl-1H-pyrrol-2-yl)-1,3,4-thiadiazol-2-yl)-4-(((1S,2R)-2-hydroxycyclopentyl)amino)-3-methoxy-2-oxo-2H-pyran-6-carboxamide] | < 5 nM
COCC(COC)Nc1cc(C(=O)Nc2nnc(-c3c(Cl)ccn3C)s2)oc(=O)c1OC [Compound 84, N-(5-(3-chloro-1-methyl-1H-pyrrol-2-yl)-1,3,4-thiadiazol-2-yl)-4-((1,3-dimethoxypropan-2-yl)amino)-3-methoxy-2-oxo-2H-pyran-6-carboxamide] | < 5 nM
COCCOc1c(N[C@H]2CCC[C@H]2O)cc(C(=O)Nc2nnc(-c3c(Cl)ccn3C)s2)oc1=O [Compound 85, N-(5-(3-chloro-1-methyl-1H-pyrrol-2-yl)-1,3,4-thiadiazol-2-yl)-4-(((1S,2R)-2-hydroxycyclopentyl)amino)-3-(2-methoxyethoxy)-2-oxo-2H-pyran-6-carboxamide] | 5 to 20 nM
COCCOc1c(N[C@@H]2CCC[C@@H]2O)cc(C(=O)Nc2nnc(-c3c(Cl)ccn3C)s2)oc1=O [Compound 86, N-(5-(3-chloro-1-methyl-1H-pyrrol-2-yl)-1,3,4-thiadiazol-2-yl)-4-(((1R,2S)-2-hydroxycyclopentyl)amino)-3-(2-methoxyethoxy)-2-oxo-2H-pyran-6-carboxamide] | < 5 nM
COc1c(NC[C@@H]2CCO2)cc(C(=O)Nc2nnc(-n3nccc3C)s2)oc1=O [Compound 93, (S)-3-methoxy-N-(5-(5-methyl-1H-pyrazol-1-yl)-1,3,4-thiadiazol-2-yl)-4-((oxetan-2-ylmethyl)amino)-2-oxo-2H-pyran-6-carboxamide] | 20 to 60 nM
COC[C@@H](C)Nc1cc(C(=O)Nc2nnc(-c3sccc3Cl)s2)oc(=O)c1OC [Compound 94, (R)—N-(5-(3-chlorothiophen-2-yl)-1,3,4-thiadiazol-2-yl)-3-methoxy-4-((1-methoxypropan-2-yl)amino)-2-oxo-2H-pyran-6-carboxamide] | 5 to 20 nM
COC[C@@H]1CCN1c1cc(C(=O)Nc2nnc(-n3nccc3C)s2)oc(=O)c1OC [Compound 95, (S)-3-methoxy-4-(2-(methoxymethyl)azetidin-1-yl)-N-(5-(5-methyl-1H-pyrazol-1-yl)-1,3,4-thiadiazol-2-yl)-2-oxo-2H-pyran-6-carboxamide] | 5 to 20 nM
COc1c(N2CCCCC2=O)cc(C(=O)Nc2nnc(-n3nccc3C)s2)oc1=O [Compound 96] | < 5 nM
COc1c(N2CCCS2(=O)=O)cc(C(=O)Nc2nnc(-n3nccc3C)s2)oc1=O [Compound 99, 4-(1,1-dioxidoisothiazolidin-2-yl)-3-methoxy-N-(5-(5-methyl-1H-pyrazol-1-yl)-1,3,4-thiadiazol-2-yl)-2-oxo-2H-pyran-6-carboxamide] | 20 to 60 nM
COc1c(NC[C@H]2CCO2)cc(C(=O)Nc2nnc(-n3nccc3C)s2)oc1=O [Compound 118, (R)-3-methoxy-N-(5-(5-methyl-1H-pyrazol-1-yl)-1,3,4-thiadiazol-2-yl)-4-((oxetan-2-ylmethyl)amino)-2-oxo-2H-pyran-6-carboxamide] | 5 to 20 nM

Continued, values first:

IC50 | SMILES
5 to 20 nM | COc1c(N[C@H]2CCC[C@H]2O)cc(C(=O)Nc2nnc(-n3nccc3C)s2)oc1=O [Compound 5, 4-(((1S,2R)-2-hydroxycyclopentyl)amino)-3-methoxy-N-(5-(5-methyl-1H-pyrazol-1-yl)-1,3,4-thiadiazol-2-yl)-2-oxo-2H-pyran-6-carboxamide]
5 to 20 nM | COc1c(N[C@H]2COC[C@@H]2OC)cc(C(=O)Nc2nnc(-n3nccc3C)s2)oc1=O [Compound 13, 3-methoxy-4-(((3S,4R)-4-methoxytetrahydrofuran-3-yl)amino)-N-(5-(5-methyl-1H-pyrazol-1-yl)-1,3,4-thiadiazol-2-yl)-2-oxo-2H-pyran-6-carboxamide]
5 to 20 nM | COc1c(N[C@H]2CCCC[C@H]2OC)cc(C(=O)Nc2nnc(-n3nccc3C)s2)oc1=O [Compound 27, 3-methoxy-4-(((1S,2R)-2-methoxycyclohexyl)amino)-N-(5-(5-methyl-1H-pyrazol-1-yl)-1,3,4-thiadiazol-2-yl)-2-oxo-2H-pyran-6-carboxamide]
60 to 200 nM | COc1c(NC2CC3(COC3)C2)cc(C(=O)Nc2nnc(-n3nccc3C)s2)oc1=O [Compound 50, 4-((2-oxaspiro[3.3]heptan-6-yl)amino)-3-methoxy-N-(5-(5-methyl-1H-pyrazol-1-yl)-1,3,4-thiadiazol-2-yl)-2-oxo-2H-pyran-6-carboxamide]
5 to 20 nM | COc1c(N[C@@H]2CCCC[C@@H]2OC)cc(C(=O)Nc2nnc(-n3nccc3C)s2)oc1=O [Compound 52, 3-methoxy-4-(((1R,2S)-2-methoxycyclohexyl)amino)-N-(5-(5-methyl-1H-pyrazol-1-yl)-1,3,4-thiadiazol-2-yl)-2-oxo-2H-pyran-6-carboxamide]
5 to 20 nM | COc1c(N[C@H]2CCCC[C@@H]2OC)cc(C(=O)Nc2nnc(-n3nccc3C)s2)oc1=O [Compound 70, 3-methoxy-4-(((1S,2S)-2-methoxycyclohexyl)amino)-N-(5-(5-methyl-1H-pyrazol-1-yl)-1,3,4-thiadiazol-2-yl)-2-oxo-2H-pyran-6-carboxamide]
5 to 20 nM | COCC1(Nc2cc(C(=O)Nc3nnc(-n4nccc4C)s3)oc(=O)c2OC)CC1 [Compound 97, 3-methoxy-4-((1-(methoxymethyl)cyclopropyl)amino)-N-(5-(5-methyl-1H-pyrazol-1-yl)-1,3,4-thiadiazol-2-yl)-2-oxo-2H-pyran-6-carboxamide]
5 to 20 nM | COCC1(Nc2cc(C(=O)Nc3nnc(-n4nccc4C)s3)oc(=O)c2OC)COC1 [Compound 98, 3-methoxy-4-((3-(methoxymethyl)oxetan-3-yl)amino)-N-(5-(5-methyl-1H-pyrazol-1-yl)-1,3,4-thiadiazol-2-yl)-2-oxo-2H-pyran-6-carboxamide]
5 to 20 nM | COc1c(N[C@@H]2COC[C@H]2OC)cc(C(=O)Nc2nnc(-n3nccc3C)s2)oc1=O [Compound 102, 3-methoxy-4-(((3R,4S)-4-methoxytetrahydrofuran-3-yl)amino)-N-(5-(5-methyl-1H-pyrazol-1-yl)-1,3,4-thiadiazol-2-yl)-2-oxo-2H-pyran-6-carboxamide]
